Measurements: ChEMBL document CHEMBL1909046, “DrugMatrix in vitro pharmacology data”

Experiments:
[1] = biological target: Prostaglandin G/H synthase 1 (Homo sapiens, UniProt P23219); assay: biochemical; assay type: tissue-based, Platelet; conditions: platelet;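 also: inhibition of COX-1 enzyme activity, with arachidonic acid supplied as substrate; in other assays of this panel Not Active means under 50% inhibition at 10 µM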
Insulin receptor = Insulin receptor (Rattus norvegicus, UniProt P15127); assay type: cell membranes, Wistar, Liver, Membrane; also: in other assays of this panel Not Active means under 50% inhibition at 10 µM
D(1A) dopamine receptor = D(1A) dopamine receptor (Homo sapiens, UniProt P21728); assay: DRUGMATRIX: Dopamine D1 radioligand binding (ligand: [3H] SCH-23390); assay type: cell membranes, CHO, Membrane; conditions: cho; Not Active = under 50% inhibition at 10 µM
[2] = biological target: Delta-type opioid receptor (Homo sapiens, UniProt P41143); assay type: cell membranes, Membrane; conditions: hek293; also: in other assays of this panel Not Active means under 50% inhibition at 10 µM
Acetylcholinesterase = Acetylcholinesterase (Homo sapiens, UniProt P22303); assay: DRUGMATRIX: Acetylcholinesterase enzyme inhibition (substrate: acetylthiocholine); assay type: cell-based, HEK293; conditions: hek293; Not Active = under 50% inhibition at 10 µM
D(4) dopamine receptor = biological target: T1, D(4) dopamine receptor (Homo sapiens, UniProt P21917); assay: DRUGMATRIX: Dopamine D4.2 radioligand binding (ligand: [3H] Spiperone); assay type: cell membranes, CHO-K1, Membrane; conditions: cho-k1; Not Active = under 50% inhibition at 10 µM
T1 sequence (P21917 whole entry): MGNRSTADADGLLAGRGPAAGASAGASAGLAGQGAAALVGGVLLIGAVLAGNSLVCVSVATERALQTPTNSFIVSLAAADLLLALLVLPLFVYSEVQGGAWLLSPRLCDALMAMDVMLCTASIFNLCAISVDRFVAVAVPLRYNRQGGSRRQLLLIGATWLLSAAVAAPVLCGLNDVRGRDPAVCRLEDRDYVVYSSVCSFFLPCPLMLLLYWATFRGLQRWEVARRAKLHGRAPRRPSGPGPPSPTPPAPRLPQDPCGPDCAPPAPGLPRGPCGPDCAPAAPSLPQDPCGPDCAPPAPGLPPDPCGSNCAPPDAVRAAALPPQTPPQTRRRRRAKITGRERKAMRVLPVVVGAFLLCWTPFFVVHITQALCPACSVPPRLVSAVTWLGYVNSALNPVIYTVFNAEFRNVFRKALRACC

[3] = DRUGMATRIX: Purinergic P2X radioligand binding (ligand: [3H] alpha, beta-Methylene-ATP); assay type: cell membranes, Oryctolagus cuniculus, New Zealand albino, Urinary bladder, Membrane; conditions: Not Active = under 50% inhibition at 10 µM
[4] = DRUGMATRIX: Interleukin IL-1 radioligand binding (ligand: [125I] interleukin 1beta); assay type: cell membranes, Membrane; conditions: nih3t3; Not Active = under 50% inhibition at 10 µM

Sequence of Prostaglandin G/H synthase 1 (P23219 whole entry): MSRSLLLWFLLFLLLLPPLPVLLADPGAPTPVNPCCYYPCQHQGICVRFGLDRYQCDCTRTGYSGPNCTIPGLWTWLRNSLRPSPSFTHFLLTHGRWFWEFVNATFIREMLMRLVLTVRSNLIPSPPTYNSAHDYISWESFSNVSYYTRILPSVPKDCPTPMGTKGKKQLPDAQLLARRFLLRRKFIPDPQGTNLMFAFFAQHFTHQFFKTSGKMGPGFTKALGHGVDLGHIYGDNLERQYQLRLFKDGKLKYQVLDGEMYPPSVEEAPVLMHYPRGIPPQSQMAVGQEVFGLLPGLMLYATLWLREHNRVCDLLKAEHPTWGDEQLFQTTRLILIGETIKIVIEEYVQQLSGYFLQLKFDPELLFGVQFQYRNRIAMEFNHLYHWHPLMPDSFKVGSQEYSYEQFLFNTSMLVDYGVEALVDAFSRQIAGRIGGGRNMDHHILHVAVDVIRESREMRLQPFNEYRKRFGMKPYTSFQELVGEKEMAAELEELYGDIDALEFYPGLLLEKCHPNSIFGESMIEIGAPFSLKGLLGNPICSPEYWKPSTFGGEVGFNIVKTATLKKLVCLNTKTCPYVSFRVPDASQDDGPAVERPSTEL
Sequence of D(1A) dopamine receptor (P21728 whole entry): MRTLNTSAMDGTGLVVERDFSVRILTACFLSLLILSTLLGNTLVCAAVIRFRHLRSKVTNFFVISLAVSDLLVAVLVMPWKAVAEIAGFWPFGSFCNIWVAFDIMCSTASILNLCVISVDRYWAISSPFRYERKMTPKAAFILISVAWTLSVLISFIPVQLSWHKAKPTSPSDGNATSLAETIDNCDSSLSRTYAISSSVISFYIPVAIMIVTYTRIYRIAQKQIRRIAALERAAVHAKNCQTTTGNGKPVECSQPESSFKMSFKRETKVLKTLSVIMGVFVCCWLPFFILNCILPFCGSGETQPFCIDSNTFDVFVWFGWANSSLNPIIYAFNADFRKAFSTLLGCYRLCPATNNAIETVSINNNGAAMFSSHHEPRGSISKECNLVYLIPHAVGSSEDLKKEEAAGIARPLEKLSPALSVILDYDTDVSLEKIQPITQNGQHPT
Sequence of Insulin receptor (P15127 27-759 limits assumed): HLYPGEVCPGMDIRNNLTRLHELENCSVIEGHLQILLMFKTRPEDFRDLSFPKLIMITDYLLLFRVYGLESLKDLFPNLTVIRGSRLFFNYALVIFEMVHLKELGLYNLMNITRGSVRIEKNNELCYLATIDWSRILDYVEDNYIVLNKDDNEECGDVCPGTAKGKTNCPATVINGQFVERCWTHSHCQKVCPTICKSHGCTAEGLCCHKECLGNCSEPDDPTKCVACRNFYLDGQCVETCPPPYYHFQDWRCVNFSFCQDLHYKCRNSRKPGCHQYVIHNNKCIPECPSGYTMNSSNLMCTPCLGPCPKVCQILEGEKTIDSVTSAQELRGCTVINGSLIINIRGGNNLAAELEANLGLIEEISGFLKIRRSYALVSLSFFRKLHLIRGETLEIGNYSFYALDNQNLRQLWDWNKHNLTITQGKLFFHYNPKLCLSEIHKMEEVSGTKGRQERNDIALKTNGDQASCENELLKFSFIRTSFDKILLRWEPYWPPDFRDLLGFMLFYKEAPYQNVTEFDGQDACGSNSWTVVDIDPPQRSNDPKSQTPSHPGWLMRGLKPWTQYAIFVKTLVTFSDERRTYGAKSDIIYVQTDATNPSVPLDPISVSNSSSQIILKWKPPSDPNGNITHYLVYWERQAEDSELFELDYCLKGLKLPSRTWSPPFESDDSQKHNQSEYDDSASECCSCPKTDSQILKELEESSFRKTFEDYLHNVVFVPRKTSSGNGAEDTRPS
Sequence of Insulin receptor (P15127 764-1383 limits assumed): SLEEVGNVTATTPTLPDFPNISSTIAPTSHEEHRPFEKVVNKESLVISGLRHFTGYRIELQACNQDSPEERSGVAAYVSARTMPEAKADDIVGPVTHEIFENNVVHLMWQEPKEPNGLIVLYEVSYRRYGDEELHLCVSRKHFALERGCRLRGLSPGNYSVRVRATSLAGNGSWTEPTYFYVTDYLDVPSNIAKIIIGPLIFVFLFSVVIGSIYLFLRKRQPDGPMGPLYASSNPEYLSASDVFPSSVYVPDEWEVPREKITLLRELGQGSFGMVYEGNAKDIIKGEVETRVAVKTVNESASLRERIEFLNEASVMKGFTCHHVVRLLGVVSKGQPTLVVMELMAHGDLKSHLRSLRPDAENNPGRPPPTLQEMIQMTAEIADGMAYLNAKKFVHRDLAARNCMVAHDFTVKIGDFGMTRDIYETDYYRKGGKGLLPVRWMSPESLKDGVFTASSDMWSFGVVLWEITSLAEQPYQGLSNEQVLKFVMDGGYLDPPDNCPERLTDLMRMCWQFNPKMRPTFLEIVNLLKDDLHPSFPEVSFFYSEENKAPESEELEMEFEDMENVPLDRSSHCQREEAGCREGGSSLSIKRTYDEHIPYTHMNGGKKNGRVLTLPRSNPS
Sequence of Acetylcholinesterase (P22303 whole entry): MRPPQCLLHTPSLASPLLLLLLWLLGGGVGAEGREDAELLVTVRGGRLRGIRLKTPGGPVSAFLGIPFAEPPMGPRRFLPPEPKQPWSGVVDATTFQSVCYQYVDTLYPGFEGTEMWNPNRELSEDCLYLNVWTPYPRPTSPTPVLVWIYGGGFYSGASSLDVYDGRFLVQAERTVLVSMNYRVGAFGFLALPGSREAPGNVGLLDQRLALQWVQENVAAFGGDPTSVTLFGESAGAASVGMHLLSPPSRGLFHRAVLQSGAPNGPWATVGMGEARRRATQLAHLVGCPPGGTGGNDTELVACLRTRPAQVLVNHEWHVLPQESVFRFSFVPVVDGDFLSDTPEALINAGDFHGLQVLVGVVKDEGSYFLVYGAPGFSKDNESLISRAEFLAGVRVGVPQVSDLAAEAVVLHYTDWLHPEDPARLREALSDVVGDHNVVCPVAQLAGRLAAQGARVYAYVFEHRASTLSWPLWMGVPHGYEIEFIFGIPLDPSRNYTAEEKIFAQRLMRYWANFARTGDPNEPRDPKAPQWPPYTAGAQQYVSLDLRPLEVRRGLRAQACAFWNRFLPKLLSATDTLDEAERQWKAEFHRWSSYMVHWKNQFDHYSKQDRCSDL
Sequence of Delta-type opioid receptor (P41143 whole entry): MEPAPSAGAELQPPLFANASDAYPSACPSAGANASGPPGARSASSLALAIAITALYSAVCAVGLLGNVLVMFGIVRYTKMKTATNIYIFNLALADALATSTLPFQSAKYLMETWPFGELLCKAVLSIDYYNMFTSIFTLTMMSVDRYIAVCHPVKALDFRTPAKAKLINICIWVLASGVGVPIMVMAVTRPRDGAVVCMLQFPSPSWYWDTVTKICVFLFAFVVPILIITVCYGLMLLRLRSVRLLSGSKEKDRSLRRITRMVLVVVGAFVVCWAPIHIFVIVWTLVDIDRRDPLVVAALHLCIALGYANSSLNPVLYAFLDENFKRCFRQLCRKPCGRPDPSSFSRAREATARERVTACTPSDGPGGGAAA

O=C(c1ccccc1C(F)(F)F)N1CCC(Cc2ccccc2)CC1
Not Active: IC50 [1] | IC50 (Insulin receptor) | IC50 (D(1A) dopamine receptor) | IC50 [2] | IC50 (Acetylcholinesterase) | IC50 (D(4) dopamine receptor) | IC50 [3] | Ki [3] | IC50 [4] | Ki [4]

O=C/C=C/c1ccccc1
Not Active: IC50 [1] | IC50 (Insulin receptor) | IC50 (D(1A) dopamine receptor) | IC50 [2] | IC50 (Acetylcholinesterase) | IC50 (D(4) dopamine receptor) | IC50 [3] | Ki [3] | IC50 [4] | Ki [4]

Nc1ccc2c3c(cccc13)C(=O)NC2=O
Not Active: IC50 [1] | IC50 (Insulin receptor) | IC50 (D(1A) dopamine receptor) | IC50 [2] | IC50 (Acetylcholinesterase) | IC50 (D(4) dopamine receptor) | IC50 [3] | Ki [3] | IC50 [4] | Ki [4]

COc1ccc(C(=O)N2CCCC2=O)cc1
Not Active: IC50 [1] | IC50 (Insulin receptor) | IC50 (D(1A) dopamine receptor) | IC50 [2] | IC50 (Acetylcholinesterase) | IC50 (D(4) dopamine receptor) | IC50 [3] | Ki [3] | IC50 [4] | Ki [4]

O=c1cnn([C@@H]2O[C@H](CO)[C@@H](O)[C@H]2O)c(=O)[nH]1 [6-AZAURIDINE]
Not Active: IC50 [1] | IC50 (Insulin receptor) | IC50 (D(1A) dopamine receptor) | IC50 [2] | IC50 (Acetylcholinesterase) | IC50 (D(4) dopamine receptor) | IC50 [3] | Ki [3] | IC50 [4] | Ki [4]

CC[C@H](C)[C@H]1O[C@]2(C=C[C@@H]1C)C[C@@H]1C[C@@H](C/C=C(\C)[C@@H](O[C@H]3C[C@H](OC)[C@@H](O[C@H]4C[C@H](OC)[C@@H](O)[C@H](C)O4)[C@H](C)O3)[C@@H](C)/C=C/C=C3\CO[C@@H]4[C@H](O)C(C)=C[C@@H](C(=O)O1)[C@]34O)O2.CO[C@H]1C[C@H](O[C@H]2[C@H](C)O[C@@H](O[C@@H]3/C(C)=C/C[C@@H]4C[C@@H](C[C@]5(C=C[C@H](C)[C@@H](C(C)C)O5)O4)OC(=O)[C@@H]4C=C(C)[C@@H](O)[C@H]5OC/C(=C\C=C\[C@@H]3C)[C@]54O)C[C@@H]2OC)O[C@@H](C)[C@@H]1O [ABAMECTIN]
Not Active: IC50 [1] | IC50 (Insulin receptor) | IC50 [2] | IC50 (Acetylcholinesterase) | IC50 (D(4) dopamine receptor) | IC50 [3] | Ki [3] | IC50 [4] | Ki [4]

NCCCC(O)(P(=O)(O)O)P(=O)(O)O [ALENDRONIC ACID]
Not Active: IC50 [1] | IC50 (Insulin receptor) | IC50 (D(1A) dopamine receptor) | IC50 [2] | IC50 (Acetylcholinesterase) | IC50 (D(4) dopamine receptor) | IC50 [3] | Ki [3] | IC50 [4] | Ki [4]

Cc1nnc2n1-c1ccc(Cl)cc1C(c1ccccc1)=NC2 [ALPRAZOLAM]
Not Active: IC50 [1] | IC50 (Insulin receptor) | IC50 (D(1A) dopamine receptor) | IC50 [2] | IC50 (Acetylcholinesterase) | IC50 (D(4) dopamine receptor) | IC50 [3] | Ki [3] | IC50 [4] | Ki [4]

Cn1c(=O)c2[nH]cnc2n(C)c1=O.Cn1c(=O)c2[nH]cnc2n(C)c1=O.NCCN [AMINOPHYLLINE]
Not Active: IC50 [1] | IC50 (Insulin receptor) | IC50 (D(1A) dopamine receptor) | IC50 [2] | IC50 (Acetylcholinesterase) | IC50 (D(4) dopamine receptor) | IC50 [3] | Ki [3] | IC50 [4] | Ki [4]

CCC1(CCC(C)C)C(=O)NC(=O)NC1=O [AMOBARBITAL]
Not Active: IC50 [1] | IC50 (Insulin receptor) | IC50 (D(1A) dopamine receptor) | IC50 [2] | IC50 (Acetylcholinesterase) | IC50 (D(4) dopamine receptor) | IC50 [3] | Ki [3] | IC50 [4] | Ki [4]

CC1(C)S[C@@H]2[C@H](NC(=O)[C@H](N)c3ccccc3)C(=O)N2[C@H]1C(=O)O [AMPICILLIN]
Not Active: IC50 [1] | IC50 (Insulin receptor) | IC50 (D(1A) dopamine receptor) | IC50 [2] | IC50 (Acetylcholinesterase) | IC50 (D(4) dopamine receptor) | IC50 [3] | Ki [3] | IC50 [4] | Ki [4]

COc1ccc(C2C(=O)c3ccccc3C2=O)cc1 [ANISINDIONE]
Not Active: IC50 [1] | IC50 (Insulin receptor) | IC50 (D(1A) dopamine receptor) | IC50 [2] | IC50 (Acetylcholinesterase) | IC50 (D(4) dopamine receptor) | IC50 [3] | Ki [3] | IC50 [4] | Ki [4]

O=C1O[C@H]([C@@H](O)CO)C(O)=C1O [ASCORBIC ACID]
Not Active: IC50 [1] | IC50 (Insulin receptor) | IC50 (D(1A) dopamine receptor) | IC50 [2] | IC50 (Acetylcholinesterase) | IC50 (D(4) dopamine receptor) | IC50 [3] | Ki [3] | IC50 [4] | Ki [4]

CN1[C@@H]2CC[C@H]1C[C@@H](OC(=O)C(CO)c1ccccc1)C2 (stereo partly drawn) [ATROPINE]
Not Active: IC50 [1] | IC50 (Insulin receptor) | IC50 (D(1A) dopamine receptor) | IC50 [2] | IC50 (Acetylcholinesterase) | IC50 (D(4) dopamine receptor) | IC50 [3] | Ki [3] | IC50 [4] | Ki [4]

CC(C(=O)O)c1ccc2oc(-c3ccc(Cl)cc3)nc2c1 (stereo not drawn) [BENOXAPROFEN]
Not Active: IC50 [1] | IC50 (Insulin receptor) | IC50 (D(1A) dopamine receptor) | IC50 [2] | IC50 (Acetylcholinesterase) | IC50 (D(4) dopamine receptor) | IC50 [3] | Ki [3] | IC50 [4] | Ki [4]

COc1ccc2cc3[n+](cc2c1OC)CCc1cc2c(cc1-3)OCO2.[Cl-] [BERBERINE CHLORIDE]
Not Active: IC50 [1] | IC50 (Insulin receptor) | IC50 [2] | IC50 (D(4) dopamine receptor) | IC50 [3] | Ki [3] | IC50 [4] | Ki [4]

O=C(O)CCNC(=O)c1ccccc1 [BETAMIPRON]
Not Active: IC50 [1] | IC50 (Insulin receptor) | IC50 (D(1A) dopamine receptor) | IC50 [2] | IC50 (Acetylcholinesterase) | IC50 (D(4) dopamine receptor) | IC50 [3] | Ki [3] | IC50 [4] | Ki [4]

CC(=O)Oc1ccc(C(c2ccc(OC(C)=O)cc2)c2ccccn2)cc1 [BISACODYL]
Not Active: IC50 [1] | IC50 (Insulin receptor) | IC50 (D(1A) dopamine receptor) | IC50 [2] | IC50 (Acetylcholinesterase) | IC50 (D(4) dopamine receptor) | IC50 [3] | Ki [3] | IC50 [4] | Ki [4]

Cc1cc2c(OCC(CNC(C)(C)C)OC(=O)c3ccccc3)cccc2[nH]1 (stereo not drawn) [BOPINDOLOL]
Not Active: IC50 [1] | IC50 (Insulin receptor) | IC50 (D(1A) dopamine receptor) | IC50 [2] | IC50 (Acetylcholinesterase) | IC50 (D(4) dopamine receptor) | IC50 [3] | Ki [3] | IC50 [4] | Ki [4]

Brc1c(NC2=NCCN2)ccc2nccnc12 [BRIMONIDINE]
Not Active: IC50 [1] | IC50 (Insulin receptor) | IC50 (D(1A) dopamine receptor) | IC50 [2] | IC50 (Acetylcholinesterase) | IC50 (D(4) dopamine receptor) | IC50 [3] | Ki [3] | IC50 [4] | Ki [4]

CN(C)[C@@H]1C(O)=C(C(N)=O)C(=O)[C@@]2(O)C(O)=C3C(=O)c4c(O)ccc(Cl)c4[C@@](C)(O)[C@H]3C[C@@H]12 [CHLORTETRACYCLINE]
Not Active: IC50 [1] | IC50 (Insulin receptor) | IC50 (D(1A) dopamine receptor) | IC50 [2] | IC50 (Acetylcholinesterase) | IC50 (D(4) dopamine receptor) | IC50 [3] | Ki [3] | IC50 [4] | Ki [4]

COc1ccc2c3c1O[C@H]1C[C@@H](O)C=C[C@@]31CCN(C)C2 [GALANTAMINE]
Not Active: IC50 [1] | IC50 (Insulin receptor) | IC50 (D(1A) dopamine receptor) | IC50 [2] | IC50 (D(4) dopamine receptor) | IC50 [3] | Ki [3] | IC50 [4] | Ki [4]

Oc1c(Cl)cc(Cl)c(Cl)c1Cc1c(O)c(Cl)cc(Cl)c1Cl [HEXACHLOROPHENE]
Not Active: IC50 [1] | IC50 (Insulin receptor) | IC50 (D(1A) dopamine receptor) | IC50 [2] | IC50 (D(4) dopamine receptor) | IC50 [3] | Ki [3] | IC50 [4] | Ki [4]

O=C(O)c1cccnc1Nc1cccc(C(F)(F)F)c1 [NIFLUMIC ACID]
Not Active: IC50 (Insulin receptor) | IC50 (D(1A) dopamine receptor) | IC50 [2] | IC50 (Acetylcholinesterase) | IC50 (D(4) dopamine receptor) | IC50 [3] | Ki [3] | IC50 [4] | Ki [4]

CC(=O)O[C@H]1C(=O)[C@@]2(C)[C@H]([C@H](OC(=O)c3ccccc3)[C@]3(O)C[C@H](OC(=O)[C@H](O)[C@@H](NC(=O)c4ccccc4)c4ccccc4)C(C)=C1C3(C)C)[C@]1(OC(C)=O)CO[C@@H]1C[C@@H]2O [PACLITAXEL]
Not Active: IC50 [1] | IC50 (Insulin receptor) | IC50 (D(1A) dopamine receptor) | IC50 (Acetylcholinesterase) | IC50 (D(4) dopamine receptor) | IC50 [3] | Ki [3] | IC50 [4] | Ki [4]
